The assay concerns the target T1, bovine liver β-galactosidase.
T1 construct: gene GLB1; commercial native enzyme from bovine liver (Sigma-Aldrich)
The experiment in a line: PNP-β-Gal hydrolysis, absorbance at […] nm. In kind it is biochemical, Bos taurus. The conditions noted are these: 1 mM PNP-β-Gal, citrate-phosphate buffer pH 7.3, 37 °C, 0.12 mg/mL enzyme; read-out: Inh.

The structures appear in SMILES notation.

Consider `CCOC(=O)c1c(-c2ccccc2)nc([C@@H]2O[C@H](CO)[C@@H](O)[C@H](O)[C@H]2O)[nH]c1=O` [11h, Ethyl 2-(β-D-glucopyranosyl)-4-phenyl-6-oxo-1,6-dihydropyrimidine-5-carboxylate], for which the IC50 amounted to 294 ± 50 µM.

The values are drawn from publication PMC7037636, “Synthesis of New Series of 2-C-(β-D-glucopyranosyl)-Pyrimidines and Their Evaluation as Inhibitors of Some Glycoenzymes” (Molecules, 2020).
